From ChEMBL document CHEMBL5303766, “Data for DCP probe FHT-2344” (2022)

Key:
Conditions in all cases: for ΔTm: Compound concentration 10.0 uM
[1] = molecular target: STE20/SPS1-related proline-alanine-rich protein kinase (Homo sapiens) (UniProt Q9UEW8); assay: STK39 SGC Tm panel (DSF)
[2] = molecular target: RAC-gamma serine/threonine-protein kinase (Homo sapiens) (UniProt Q9Y243); assay: AKT3 SGC Tm panel (DSF)
[3] = molecular target: Tyrosine-protein kinase Fes/Fps (Homo sapiens) (UniProt P07332); assay: FES SGC Tm panel (DSF)
[4] = molecular target: MAP kinase-activated protein kinase 2 (Homo sapiens) (UniProt P49137); assay: MAPKAPK2 SGC Tm panel (DSF)
[5] = molecular target: Mitogen-activated protein kinase 14 (Homo sapiens) (UniProt Q16539); assay: MAPK14 SGC Tm panel (DSF)
[6] = molecular target: BMP-2-inducible protein kinase (Homo sapiens) (UniProt Q9NSY1); assay: BMP2K SGC Tm panel (DSF)
[7] = molecular target: Fibroblast growth factor receptor 2 (Homo sapiens) (UniProt P21802); assay: FGFR2 SGC Tm panel (DSF)
[8] = molecular target: STE20-like serine/threonine-protein kinase (Homo sapiens) (UniProt Q9H2G2); assay: SLK SGC Tm panel (DSF)
[9] = molecular target: T1, Calcium/calmodulin-dependent protein kinase type IV (Homo sapiens) (UniProt Q16566); assay: CAMK4 SGC Tm panel (DSF)
T1 sequence (whole entry): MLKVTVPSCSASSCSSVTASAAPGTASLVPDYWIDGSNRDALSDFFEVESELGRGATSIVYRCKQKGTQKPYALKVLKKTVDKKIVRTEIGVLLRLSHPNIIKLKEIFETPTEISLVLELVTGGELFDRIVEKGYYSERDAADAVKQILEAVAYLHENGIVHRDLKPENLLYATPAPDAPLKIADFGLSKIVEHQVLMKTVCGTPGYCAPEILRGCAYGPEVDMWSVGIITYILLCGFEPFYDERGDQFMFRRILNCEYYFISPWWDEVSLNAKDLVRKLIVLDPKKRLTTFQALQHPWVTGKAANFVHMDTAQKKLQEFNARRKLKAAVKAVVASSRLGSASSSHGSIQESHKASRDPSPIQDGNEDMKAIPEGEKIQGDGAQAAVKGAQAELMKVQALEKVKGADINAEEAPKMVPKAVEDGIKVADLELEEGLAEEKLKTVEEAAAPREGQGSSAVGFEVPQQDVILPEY

[10] = molecular target: T2, Cyclin-G-associated kinase (Homo sapiens) (UniProt O14976); assay: GAK SGC Tm panel (DSF)
T2 sequence (whole entry): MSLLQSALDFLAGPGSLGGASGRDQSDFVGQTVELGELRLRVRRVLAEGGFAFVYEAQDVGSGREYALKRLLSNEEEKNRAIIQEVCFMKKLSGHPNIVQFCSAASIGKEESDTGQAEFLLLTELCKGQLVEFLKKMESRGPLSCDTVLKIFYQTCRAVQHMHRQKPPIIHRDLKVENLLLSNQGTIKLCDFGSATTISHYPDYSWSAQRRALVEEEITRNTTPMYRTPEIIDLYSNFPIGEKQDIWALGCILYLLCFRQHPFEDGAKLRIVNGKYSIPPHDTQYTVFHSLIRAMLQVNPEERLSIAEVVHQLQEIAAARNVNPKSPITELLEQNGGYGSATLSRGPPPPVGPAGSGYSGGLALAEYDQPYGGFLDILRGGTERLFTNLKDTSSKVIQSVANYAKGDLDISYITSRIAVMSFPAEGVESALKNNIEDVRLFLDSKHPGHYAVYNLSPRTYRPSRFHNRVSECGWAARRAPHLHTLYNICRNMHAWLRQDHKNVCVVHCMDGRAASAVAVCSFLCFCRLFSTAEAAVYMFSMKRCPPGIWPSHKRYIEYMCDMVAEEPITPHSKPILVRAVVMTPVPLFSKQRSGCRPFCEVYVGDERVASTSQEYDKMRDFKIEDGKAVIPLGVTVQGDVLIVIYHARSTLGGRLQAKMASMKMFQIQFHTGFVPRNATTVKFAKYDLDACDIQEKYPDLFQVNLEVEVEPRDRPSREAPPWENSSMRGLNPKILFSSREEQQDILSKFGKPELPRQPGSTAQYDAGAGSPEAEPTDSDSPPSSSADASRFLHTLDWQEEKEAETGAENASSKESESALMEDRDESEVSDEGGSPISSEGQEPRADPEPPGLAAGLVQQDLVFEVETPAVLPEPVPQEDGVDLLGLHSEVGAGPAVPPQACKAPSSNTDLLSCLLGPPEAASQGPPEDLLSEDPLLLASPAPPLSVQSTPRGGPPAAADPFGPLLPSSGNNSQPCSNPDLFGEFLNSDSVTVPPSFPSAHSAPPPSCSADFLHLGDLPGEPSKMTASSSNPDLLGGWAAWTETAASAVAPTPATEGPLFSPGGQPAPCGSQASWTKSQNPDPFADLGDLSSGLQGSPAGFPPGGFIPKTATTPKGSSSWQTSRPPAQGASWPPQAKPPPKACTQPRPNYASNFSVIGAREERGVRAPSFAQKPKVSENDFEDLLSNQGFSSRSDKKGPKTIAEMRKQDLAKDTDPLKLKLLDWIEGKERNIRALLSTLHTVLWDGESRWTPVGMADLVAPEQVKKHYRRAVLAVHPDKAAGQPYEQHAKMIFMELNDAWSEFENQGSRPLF

[11] = molecular target: Death-associated protein kinase 1 (Homo sapiens) (UniProt P53355); assay: DAPK1 SGC Tm panel (DSF)
[12] = molecular target: Death-associated protein kinase 3 (Homo sapiens) (UniProt O43293); assay: DAPK3 SGC Tm panel (DSF)
[13] = molecular target: Serine/threonine-protein kinase PAK 1 (Homo sapiens) (UniProt Q13153); assay: PAK1 SGC Tm panel (DSF)
[14] = molecular target: Glycogen synthase kinase-3 beta (Homo sapiens) (UniProt P49841); assay: GSK3B SGC Tm panel (DSF)
[15] = molecular target: Cyclin-dependent kinase-like 1 (Homo sapiens) (UniProt Q00532); assay: CDKL1 SGC Tm panel (DSF)

Mitogen-activated protein kinase 14 (Homo sapiens), sequence (Q16539 whole entry): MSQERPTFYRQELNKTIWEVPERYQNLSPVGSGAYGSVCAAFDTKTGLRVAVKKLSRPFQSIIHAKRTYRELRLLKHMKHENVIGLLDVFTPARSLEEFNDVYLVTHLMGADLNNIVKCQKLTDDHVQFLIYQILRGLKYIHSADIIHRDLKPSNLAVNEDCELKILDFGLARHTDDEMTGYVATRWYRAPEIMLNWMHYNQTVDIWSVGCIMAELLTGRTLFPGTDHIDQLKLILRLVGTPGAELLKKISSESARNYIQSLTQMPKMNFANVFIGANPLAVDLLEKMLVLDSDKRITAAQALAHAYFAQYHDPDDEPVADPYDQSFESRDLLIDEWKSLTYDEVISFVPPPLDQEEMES
RAC-gamma serine/threonine-protein kinase (Homo sapiens), sequence (Q9Y243 whole entry): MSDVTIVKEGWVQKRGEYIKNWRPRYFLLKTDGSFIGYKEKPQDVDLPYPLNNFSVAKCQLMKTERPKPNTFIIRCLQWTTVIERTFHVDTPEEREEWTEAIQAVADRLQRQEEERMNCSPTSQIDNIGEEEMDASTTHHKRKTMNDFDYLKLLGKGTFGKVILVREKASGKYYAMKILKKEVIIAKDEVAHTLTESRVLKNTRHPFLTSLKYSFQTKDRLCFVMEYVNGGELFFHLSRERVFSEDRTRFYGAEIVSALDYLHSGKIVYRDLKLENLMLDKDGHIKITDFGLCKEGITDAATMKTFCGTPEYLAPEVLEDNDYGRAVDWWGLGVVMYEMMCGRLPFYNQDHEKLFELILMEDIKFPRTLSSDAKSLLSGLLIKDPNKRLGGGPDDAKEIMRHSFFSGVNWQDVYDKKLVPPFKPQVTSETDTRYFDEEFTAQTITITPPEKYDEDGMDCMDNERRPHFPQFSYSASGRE
Glycogen synthase kinase-3 beta (Homo sapiens), sequence (P49841 whole entry, looked up): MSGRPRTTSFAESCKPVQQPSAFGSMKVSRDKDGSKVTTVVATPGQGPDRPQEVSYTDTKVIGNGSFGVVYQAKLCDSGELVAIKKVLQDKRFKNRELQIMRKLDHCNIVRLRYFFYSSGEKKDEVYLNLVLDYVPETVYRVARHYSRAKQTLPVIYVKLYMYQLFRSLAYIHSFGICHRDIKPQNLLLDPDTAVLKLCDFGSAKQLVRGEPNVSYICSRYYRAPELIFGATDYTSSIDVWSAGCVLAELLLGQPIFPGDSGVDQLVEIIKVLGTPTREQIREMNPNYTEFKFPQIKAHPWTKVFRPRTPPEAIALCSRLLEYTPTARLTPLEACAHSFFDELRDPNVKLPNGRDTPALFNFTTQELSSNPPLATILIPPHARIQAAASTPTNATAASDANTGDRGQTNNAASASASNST
BMP-2-inducible protein kinase (Homo sapiens), sequence (Q9NSY1 whole entry, looked up): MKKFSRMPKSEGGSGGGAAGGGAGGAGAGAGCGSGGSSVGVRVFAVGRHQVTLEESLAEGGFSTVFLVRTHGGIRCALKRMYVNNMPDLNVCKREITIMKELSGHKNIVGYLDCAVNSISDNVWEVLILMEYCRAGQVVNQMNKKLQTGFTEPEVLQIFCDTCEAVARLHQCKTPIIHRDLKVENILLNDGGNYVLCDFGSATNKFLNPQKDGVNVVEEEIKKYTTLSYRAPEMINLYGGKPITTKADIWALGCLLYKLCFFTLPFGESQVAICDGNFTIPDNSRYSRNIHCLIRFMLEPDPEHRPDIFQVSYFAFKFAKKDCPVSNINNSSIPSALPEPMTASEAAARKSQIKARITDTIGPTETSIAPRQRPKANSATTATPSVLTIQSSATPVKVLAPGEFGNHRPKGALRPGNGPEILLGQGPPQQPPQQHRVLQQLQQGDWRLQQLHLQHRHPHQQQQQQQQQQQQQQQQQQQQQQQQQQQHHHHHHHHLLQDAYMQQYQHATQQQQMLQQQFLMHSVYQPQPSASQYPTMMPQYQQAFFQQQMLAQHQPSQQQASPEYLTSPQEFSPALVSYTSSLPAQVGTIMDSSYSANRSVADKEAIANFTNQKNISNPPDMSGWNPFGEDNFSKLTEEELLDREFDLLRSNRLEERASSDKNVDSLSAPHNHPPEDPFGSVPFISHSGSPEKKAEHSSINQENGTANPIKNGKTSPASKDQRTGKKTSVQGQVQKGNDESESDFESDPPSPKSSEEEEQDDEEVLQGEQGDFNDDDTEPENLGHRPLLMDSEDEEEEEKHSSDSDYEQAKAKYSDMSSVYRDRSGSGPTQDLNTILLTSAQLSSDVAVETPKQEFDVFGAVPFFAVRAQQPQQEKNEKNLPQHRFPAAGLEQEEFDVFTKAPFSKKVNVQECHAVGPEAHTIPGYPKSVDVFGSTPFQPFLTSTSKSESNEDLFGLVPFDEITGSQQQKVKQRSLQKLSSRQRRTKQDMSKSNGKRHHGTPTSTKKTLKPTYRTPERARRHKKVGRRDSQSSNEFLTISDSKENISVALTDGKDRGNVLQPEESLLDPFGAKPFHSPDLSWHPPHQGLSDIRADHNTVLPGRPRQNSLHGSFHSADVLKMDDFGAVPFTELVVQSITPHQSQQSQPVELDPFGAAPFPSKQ
Fibroblast growth factor receptor 2 (Homo sapiens), sequence (P21802 22-821 limits assumed): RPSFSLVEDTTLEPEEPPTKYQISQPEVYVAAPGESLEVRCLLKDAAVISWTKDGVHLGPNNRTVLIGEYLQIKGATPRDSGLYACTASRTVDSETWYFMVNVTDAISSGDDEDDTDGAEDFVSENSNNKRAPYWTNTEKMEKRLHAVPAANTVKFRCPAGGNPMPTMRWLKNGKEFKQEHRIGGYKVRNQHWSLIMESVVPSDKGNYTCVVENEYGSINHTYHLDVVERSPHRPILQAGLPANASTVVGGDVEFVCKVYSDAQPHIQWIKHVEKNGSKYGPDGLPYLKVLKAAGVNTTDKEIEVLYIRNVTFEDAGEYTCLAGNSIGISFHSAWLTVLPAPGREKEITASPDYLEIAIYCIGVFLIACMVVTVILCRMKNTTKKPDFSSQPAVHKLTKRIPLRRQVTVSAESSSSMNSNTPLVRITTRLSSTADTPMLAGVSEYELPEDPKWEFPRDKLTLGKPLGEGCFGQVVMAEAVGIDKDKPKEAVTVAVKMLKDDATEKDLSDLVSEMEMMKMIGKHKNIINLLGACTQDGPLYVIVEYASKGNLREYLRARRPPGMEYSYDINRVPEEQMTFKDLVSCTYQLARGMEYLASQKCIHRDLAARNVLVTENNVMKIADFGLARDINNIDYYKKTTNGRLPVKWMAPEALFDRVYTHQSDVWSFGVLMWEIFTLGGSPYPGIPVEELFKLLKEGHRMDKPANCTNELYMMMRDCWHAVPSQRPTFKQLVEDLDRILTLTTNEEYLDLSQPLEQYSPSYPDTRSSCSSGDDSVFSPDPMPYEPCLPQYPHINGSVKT
STE20-like serine/threonine-protein kinase (Homo sapiens), sequence (Q9H2G2 whole entry, looked up): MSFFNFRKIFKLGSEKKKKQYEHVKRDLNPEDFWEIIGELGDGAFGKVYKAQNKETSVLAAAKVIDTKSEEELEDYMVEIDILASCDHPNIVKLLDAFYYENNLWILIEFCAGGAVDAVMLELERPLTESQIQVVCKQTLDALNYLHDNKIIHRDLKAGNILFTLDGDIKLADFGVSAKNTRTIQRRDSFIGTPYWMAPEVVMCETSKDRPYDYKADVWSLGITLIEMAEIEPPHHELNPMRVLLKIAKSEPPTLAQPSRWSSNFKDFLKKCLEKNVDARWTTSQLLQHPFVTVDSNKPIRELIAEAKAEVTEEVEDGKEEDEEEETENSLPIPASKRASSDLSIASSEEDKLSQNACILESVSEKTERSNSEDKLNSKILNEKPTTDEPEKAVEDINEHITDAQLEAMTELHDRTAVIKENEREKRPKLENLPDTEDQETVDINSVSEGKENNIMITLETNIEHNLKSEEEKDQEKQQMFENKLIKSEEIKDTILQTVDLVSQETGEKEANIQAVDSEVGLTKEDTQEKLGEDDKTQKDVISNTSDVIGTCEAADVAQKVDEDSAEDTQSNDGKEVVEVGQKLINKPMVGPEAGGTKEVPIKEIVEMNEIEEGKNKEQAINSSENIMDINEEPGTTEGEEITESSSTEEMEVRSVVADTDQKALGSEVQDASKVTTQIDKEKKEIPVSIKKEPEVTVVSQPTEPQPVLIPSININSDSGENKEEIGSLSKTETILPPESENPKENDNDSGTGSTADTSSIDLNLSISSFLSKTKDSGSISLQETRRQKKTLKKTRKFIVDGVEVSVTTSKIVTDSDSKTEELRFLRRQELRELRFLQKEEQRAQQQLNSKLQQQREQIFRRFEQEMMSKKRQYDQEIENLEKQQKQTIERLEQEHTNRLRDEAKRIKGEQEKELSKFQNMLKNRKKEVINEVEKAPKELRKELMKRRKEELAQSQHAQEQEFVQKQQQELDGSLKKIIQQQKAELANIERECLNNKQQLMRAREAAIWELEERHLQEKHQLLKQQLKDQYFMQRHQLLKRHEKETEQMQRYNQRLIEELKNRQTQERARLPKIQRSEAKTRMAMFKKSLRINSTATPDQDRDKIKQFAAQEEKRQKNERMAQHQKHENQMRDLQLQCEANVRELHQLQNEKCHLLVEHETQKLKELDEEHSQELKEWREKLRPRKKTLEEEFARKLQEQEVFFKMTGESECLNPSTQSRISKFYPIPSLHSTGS
Serine/threonine-protein kinase PAK 1 (Homo sapiens), sequence (Q13153 whole entry): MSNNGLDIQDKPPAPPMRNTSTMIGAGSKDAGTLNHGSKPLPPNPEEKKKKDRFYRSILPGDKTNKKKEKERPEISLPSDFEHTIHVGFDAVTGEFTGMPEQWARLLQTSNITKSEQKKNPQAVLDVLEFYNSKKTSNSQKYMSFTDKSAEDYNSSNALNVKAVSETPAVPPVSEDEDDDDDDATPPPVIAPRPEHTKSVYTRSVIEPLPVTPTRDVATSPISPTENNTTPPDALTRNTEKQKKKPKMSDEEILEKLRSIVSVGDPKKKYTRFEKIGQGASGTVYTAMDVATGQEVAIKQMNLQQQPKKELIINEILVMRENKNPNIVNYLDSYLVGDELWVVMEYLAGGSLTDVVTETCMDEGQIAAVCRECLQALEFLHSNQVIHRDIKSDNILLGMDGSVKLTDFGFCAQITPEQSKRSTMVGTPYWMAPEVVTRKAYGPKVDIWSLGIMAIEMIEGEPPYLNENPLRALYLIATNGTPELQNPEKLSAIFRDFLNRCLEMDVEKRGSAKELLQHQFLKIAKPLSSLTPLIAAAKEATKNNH

Structure (SMILES)	delta Tm Staurosporine positive control [1]	ΔTm [1]	delta Tm Staurosporine positive control [2]	ΔTm [2]	delta Tm Staurosporine positive control [3]	ΔTm [3]	delta Tm Staurosporine positive control [4]	ΔTm [4]	delta Tm Staurosporine positive control [5]	ΔTm [5]	delta Tm Staurosporine positive control [6]	ΔTm [6]	delta Tm Staurosporine positive control [7]	ΔTm [7]	delta Tm Staurosporine positive control [8]	ΔTm [8]	delta Tm Staurosporine positive control [9]	ΔTm [9]	delta Tm Staurosporine positive control [10]	ΔTm [10]	further results
COC[C@H](NC(=O)c1ccn(S(C)(=O)=O)c1)C(=O)Nc1nc(-c2cccc(-c3ccn(C)n3)c2)cs1	8.57	0.181	7.03	0.0196	8.7	0.123	3.41	0.842	1.14	-0.0969	18.7	0.214	8.53	0.294	12.2	1.33	8.78	0.803	8.71	-0.217	delta Tm Staurosporine positive control [11]: 9.19; ΔTm [11]: -0.136; delta Tm Staurosporine positive control [12]: 16.2; ΔTm [12]: -1.53; delta Tm Staurosporine positive control [13]: 7.66; ΔTm [13]: -0.233; delta Tm Staurosporine positive control [14]: 12.1; ΔTm [14]: 0.242; delta Tm Staurosporine positive control [15]: 5; ΔTm [15]: 0.194
C[C@H](NC(=O)c1cn(C2(C#N)CC2)cn1)C(=O)Nc1nc(-c2cccc(-c3ccn(C)n3)c2)cs1	8.57	0.258	7.03	0.193	8.7	0.0445	3.41	-9.54	1.14	-0.0712	18.7	0.335	8.53	0.191	12.2	0.23	8.78	0.413	8.71	-0.0366	delta Tm Staurosporine positive control [11]: 9.19; ΔTm [11]: 0.0306; delta Tm Staurosporine positive control [12]: 16.2; ΔTm [12]: -1.05; delta Tm Staurosporine positive control [13]: 7.66; ΔTm [13]: 0.443; delta Tm Staurosporine positive control [14]: 12.1; ΔTm [14]: 0.703; delta Tm Staurosporine positive control [15]: 5; ΔTm [15]: 0.189
